Key:
[1] = tested on: P388 leukemia cells; conditions: cited from earlier work
[2] = tested on: PC3 prostate cancer cells; experiment: Cell proliferation assay in prostate cancer PC3 cells; format: cell-based; conditions: Homo sapiens, PC-3
Experimental: Cell Proliferation Assay:
PC3 prostate cancer cells were cultured in DMEM/F-12 HAM Mixture (Sigma D8437), 10% Fetal Bovine Serum (Atlanta Biological S11150). Before the treatment, 3.5×10^4 cells per well were split into 12-well plates. After 24 h, 10 μM of each compound was added to each well. DMSO was used as a control. This experiment was done in triplicate. Cell viability and number were analyzed using Vi-Cell XR Cell Viability Analyzer (Beckman Coulter).

[3] = tested on: PC3 prostate cancer cells; experiment: as above; format: cell-based
[4] = tested on: different cancer cell lines; conditions: cited from earlier work

SMILES	melting point	inhibition at 10 µM [2] [%]	further results
COCc1c(OC)cc(O)c2c(=O)cc(C)oc12 [8-(methoxymethyl)eugenin]			cytotoxicity [1]: moderate cytotoxicity
COc1ccc(-c2coc3c(COC(C)=O)c(OC(C)=O)ccc3c2=O)cc1 [Isoflavonoid 7d, 7-(Acetoxy)-8-(acetoxymethyl)-3-(4-methoxyphenyl)-4H-chromen-4-one]		99.2 ± 0.4	potency at 1 µM concentration ([3]; 1 µM concentration): retained potency
COc1ccccc1-c1coc2cc(OC)c(CO)c(O)c2c1=O [Isoflavonoid 8a, 5-Hydroxy-6-(hydroxymethyl)-7-methoxy-3-(2-methoxyphenyl)-4H-chromen-4-one]	100 to 101 °C	14.6 ± 3.2	
COc1ccc(-c2coc3cc(OC)c(CO)c(O)c3c2=O)cc1 [Isoflavonoid 8b, 5-Hydroxy-6-(hydroxymethyl)-7-methoxy-3-(4-methoxyphenyl)-4H-chromen-4-one]	138 to 139 °C	0	
COc1ccc(-c2coc3c(CO)c(OC)cc(O)c3c2=O)cc1 [Isoflavonoid 9b, 5-Hydroxy-8-(hydroxymethyl)-7-methoxy-3-(4-methoxyphenyl)-4H-chromen-4-one]	139 to 141 °C	79.5 ± 3.6	
COc1ccccc1-c1coc2c(CO)c(O)ccc2c1=O [Isoflavonoid 9c, 7-Hydroxy-8-(hydroxymethyl)-3-(2-methoxyphenyl)-4H-chromen-4-one]	163 to 165 °C	0	
COc1ccc(-c2coc3c(CO)c(O)ccc3c2=O)cc1 [Isoflavonoid 9d, 7-Hydroxy-8-(hydroxymethyl)-3-(4-methoxyphenyl)-4H-chromen-4-one]	150 to 152 °C (dec.)	99.5 ± 0.2	
COc1ccc(-c2c(C)oc3c(CO)c(O)ccc3c2=O)cc1 [Isoflavonoid 9e, 7-Hydroxy-8-(hydroxymethyl)-3-(4-methoxyphenyl)-2-methyl-4H-chromen-4-one]	212 to 214 °C (dec.)	99.5 ± 0.5	
COCc1c(OC)cc2occ(-c3ccccc3OC)c(=O)c2c1O [Isoflavonoid 10a, 5-Hydroxy-7-methoxy-6-(methoxymethyl)-3-(2-methoxyphenyl)-4H-chromen-4-one]	123 to 124 °C	53.4 ± 8	
COCc1c(OC)cc2occ(-c3ccc(OC)cc3)c(=O)c2c1O [Isoflavonoid 10b, 5-Hydroxy-7-methoxy-6-(methoxymethyl)-3-(4-methoxyphenyl)-4H-chromen-4-one]	180 to 181 °C	0	
COCc1c(OC)cc(O)c2c(=O)c(-c3ccccc3OC)coc12 [Isoflavonoid 11a, 5-Hydroxy-7-methoxy-8-(methoxymethyl)-3-(2-methoxyphenyl)-4H-chromen-4-one]	154 to 155 °C	0	
COCc1c(OC)cc(O)c2c(=O)c(-c3ccc(OC)cc3)coc12 [Isoflavonoid 11b, 5-Hydroxy-7-methoxy-8-(methoxymethyl)-3-(4-methoxyphenyl)-4H-chromen-4-one]	126 to 128 °C	96.8 ± 0.8	
O=c1c(-c2ccc(O)cc2)coc2cc(O)cc(O)c12 [genistein (B), genistein]			IC50 [4]: 15 to 100 µM

Second part, led by results:

melting point	SMILES	inhibition at 10 µM [2] [%]	further results
164 to 166 °C	COCc1c(O)ccc2c(=O)c(-c3ccccc3OC)coc12 [Isoflavonoid 11c, 7-Hydroxy-8-(methoxymethyl)-3-(2-methoxyphenyl)-4H-chromen-4-one]	0	
167 to 169 °C (dec.)	COCc1c(O)ccc2c(=O)c(-c3ccc(OC)cc3)coc12 [Isoflavonoid 11d, 7-Hydroxy-8-(methoxymethyl)-3-(4-methoxyphenyl)-4H-chromen-4-one]	34.9 ± 3.3	
201 to 202 °C	COc1ccc(-c2coc3c4c(ccc3c2=O)OC2OCCC2C4)cc1 (centres unmarked) [Isoflavonoid 20a, 3-(4-Methoxyphenyl)-9,10,10a,11-tetrahydro-4H,7aH-furo[2,3-b]pyrano[2,3-f]chromen-4-one]	62 ± 7	
203 to 205 °C	O=c1c(-c2ccc3c(c2)OCO3)coc2c3c(ccc12)OC1OCCC1C3 (centres unmarked) [Isoflavonoid 20c, 3-(1,3-Benzodioxol-5-yl)-9,10,10a,11-tetrahydro-4H,7aH-furo[2,3-b]pyrano[2,3-f]chromen-4-one]	47 ± 4	
194 to 195 °C	O=c1c(-c2ccc(Cl)cc2)coc2c3c(ccc12)OC1OCCC1C3 (centres unmarked) [Isoflavonoid 20e, 3-(4-Chlorophenyl)-9,10,10a,11-tetrahydro-4H,7aH-furo[2,3-b]pyrano[2,3-f]chromen-4-one]	63 ± 10	
182 to 183 °C	COc1ccc(-c2coc3c4c(ccc3c2=O)OC2OCCCC2C4)cc1 (centres unmarked) [Isoflavonoid 21a, 3-(4-Methoxyphenyl)-10,11,11a,12-tetrahydro-4H,7aH,9H-dipyrano[2,3-b:2′,3′-f]chromen-4-one]	73 ± 6	
177 to 178 °C	COc1ccc(-c2coc3c4c(ccc3c2=O)OC2OCCCC2C4)cc1OC (centres unmarked) [Isoflavonoid 21b, 3-(3,4-Dimethoxyphenyl)-10,11,11a,12-tetrahydro-4H,7aH,9H-dipyrano[2,3-b:2′,3′-f]chromen-4-one]	35 ± 10	
179 to 181 °C	O=c1c(-c2ccc3c(c2)OCO3)coc2c3c(ccc12)OC1OCCCC1C3 (centres unmarked) [Isoflavonoid 21c, 3-(1,3-Benzodioxol-5-yl)-10,11,11a,12-tetrahydro-4H,7aH,9H-dipyrano[2,3-b:2′,3′-f]chromen-4-one]	68	
160 to 162 °C	O=c1c(-c2ccc3c(c2)OCCO3)coc2c3c(ccc12)OC1OCCCC1C3 (centres unmarked) [Isoflavonoid 21d, 3-(2,3-Dihydro-1,4-benzodioxin-6-yl)-10,11,11a,12-tetrahydro-4H,7aH,9H-dipyrano[2,3-b:2′,3′-f]chromen-4-one]	48 ± 3	
195 to 197 °C	O=c1c(-c2ccc(Cl)cc2)coc2c3c(ccc12)OC1OCCCC1C3 (centres unmarked) [Isoflavonoid 21e, 3-(4-Chlorophenyl)-10,11,11a,12-tetrahydro-4H,7aH,9H-dipyrano[2,3-b:2′,3′-f]chromen-4-one]	44 ± 4	
199 to 200 °C	COc1ccc(-c2c(C)oc3c4c(ccc3c2=O)OC2OCCCC2C4)cc1 (centres unmarked) [Isoflavonoid 21g, 3-(4-Methoxyphenyl)-2-methyl-10,11,11a,12-tetrahydro-4H,7aH,9H-dipyrano[2,3-b:2′,3′-f]chromen-4-one]	62	
209 to 210 °C	COc1ccc(-c2c(C)oc3c4c(ccc3c2=O)OC2OCCCC2C4)cc1OC (centres unmarked) [Isoflavonoid 21h, 3-(3,4-Dimethoxyphenyl)-2-methyl-10,11,11a,12-tetrahydro-4H,7aH,9H-dipyrano[2,3-b:2′,3′-f]chromen-4-one]	44 ± 3	
205 to 206 °C	Cc1oc2c3c(ccc2c(=O)c1-c1ccc(Cl)cc1)OC1OCCCC1C3 (centres unmarked) [Isoflavonoid 21i, 3-(4-Chlorophenyl)-2-methyl-10,11,11a,12-tetrahydro-4H,7aH,9H-dipyrano[2,3-b:2′,3′-f]chromen-4-one]	74 ± 3	
196 to 198 °C	COc1ccc(-c2coc3c4c(ccc3c2=O)OC2=C(C4)C(=O)CC(C)(C)C2)cc1OC [Isoflavonoid 22b, 3-(3,4-Dimethoxyphenyl)-9,9-dimethyl-8,9,10,12-tetrahydro-4H,11H-pyrano[2,3-a]xanthene-4,11-dione]	86 ± 1	inhibition at 10 µM ([2]; PC3 cells, 10 μM): 86%; inhibition at 1 µM ([3]; Homo sapiens, PC-3, 1 μM): 31%
222 to 223 °C	COc1ccc(-c2coc3c4c(ccc3c2=O)OC2(O)CCCCC2C4)cc1 (centres unmarked) [Isoflavonoid 24a, 7a-Hydroxy-3-(4-methoxyphenyl)-8,9,10,11,11a,12-hexahydro-4H,7aH-pyrano[2,3-a]xanthen-4-one]	30 ± 15	
214 to 216 °C	COc1ccc(-c2coc3c4c(ccc3c2=O)OC2(O)CCCCC2C4)cc1OC (centres unmarked) [Isoflavonoid 24b, 3-(3,4-Dimethoxyphenyl)-7a-hydroxy-8,9,10,11,11a,12-hexahydro-4H,7aH-pyrano[2,3-a]xanthen-4-one]	56 ± 5	
212 to 213 °C	COc1ccc(-c2c(C)oc3c4c(ccc3c2=O)OC2(O)CCCCC2C4)cc1 (centres unmarked) [Isoflavonoid 24g, 7a-Hydroxy-3-(4-methoxyphenyl)-2-methyl-8,9,10,11,11a,12-hexahydro-4H,7aH-pyrano[2,3-a]xanthen-4-one]	78 ± 1	
155 to 157 °C	COc1ccc(-c2coc3c(C)c4c(cc3c2=O)CC2CCOC2O4)cc1 (centres unmarked) [Isoflavonoid 25a, 3-(4-Methoxyphenyl)-11-methyl-6a,7,8,9a-tetrahydro-4H,6H-furo[2,3-b]pyrano[3,2-g]chromen-4-one]	78 ± 3	
